In patent US20240025919A1, “AZA-TETRACYCLIC OXAZEPINE COMPOUNDS AND USES THEREOF” (Genentech, Inc., priority 2022, published 2024):
Read-outs that look alike come from different tables or passages of the source.

Legend:
[1] = tested on: H1975 (KRAS wild type human lung adenocarcinoma cell line); test: KRAS 3D-Cell Proliferation Assay, H1975 (CellTiter-Glo 3D, 7 days); type: cell-based; details: H1975 3D culture, read-out: Prolif H1975 3D ATP IC50
Procedure: (§1) Example 503: KRAS 3D-Cell Proliferation Assays. Cellular potencies of compounds are assessed by evaluating inhibition of proliferation in 3D cultures of homozygous mutant KRAS G12D human pancreatic cell lines (AsPC-1 and HPAC) as compared to a KRAS wild type human lung adenocarcinoma cell line (PC-9 and/or H1975). Cells are seeded into 384-well black round-bottom, ultra-low attachment assay plates in 50 uL cell growth medium (RPMI-1640 with 10% fetal bovine serum and 2 mM L-glutamine). After overnight incubation at 37° C. and 5% CO2, compounds solubilized in DMSO are added as dilution series to the wells in a total volume of 150 nL (0.3% DMSO final). The cells are incubated for 7 days at 37° C. and 5% CO2. Cell proliferation is quantitated by addition of 40 uL/well of CellTiter-GloO 3D (Promega), and the well contents are mixed 20× at high speed using liquid handling automation workstation (Bravo with 384-well head) and centrifuged at 1500 rpm for 2 minutes to eliminate bubbles. This reagent in combination with mechanical disruption releases the cellular ATP to promote activity in a luciferase-based enzyme/substrate chemiluminescent detection system. After a 30-minute incubation under ambient conditions with shaking and an additional 10 minutes without shaking, the luminescence is read on a plate reader (e.g. EnVision [PerkinElmer]). The results are normalized to percent inhibition based on the following control samples: DMSO (0% inhibition) and 1 uM staurosporine (100% inhibition). The normalized luminescence results are plotted against compound concentration, and the data are fit to a 4-parameter Hill equation to determine the IC50 values.

KRAS G12D = KRAS G12D (Homo sapiens (Human), UniProt P01116, G12D); test: KRAS G12D LoEnz Biochemical Assay, BODIPY-GDP Exchange TR-FRET (SOS1-mediated nucleotide exchange); details: read-out: KRas (G12D) GDP HTRF IC50
KRAS WT [2] = molecular target: T1, KRAS WT (Homo sapiens (Human), UniProt P01116); test: KRAS WT Biochemical Assay, BODIPY-GDP Exchange TR-FRET (Example 502; 0.06 nM KRAS WT, 15 nM GDP, 300 nM SOS1, 120-minute incubation); details: read-out: KRas HTRF IC50
In short: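 IC50 from a 4-parameter Hill fit of percent inhibition, itself the TR-FRET 520/490 nm ratio scaled between DMSO and a fully inhibiting control. Reaction: 300 nM SOS1 and 300 nM BODIPY-GDP added to preformed 0.06 nM KRAS WT/15 nM GDP/Tb-streptavidin complex; 120 min incubation; pH 7.5 HEPES, MgCl2, DTT.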

[3] = tested on: HPAC (homozygous mutant KRAS G12D human pancreatic cell line); test: KRAS 3D-Cell Proliferation Assay, HPAC (CellTiter-Glo 3D, 7 days); type: cell-based; details: HPAC 3D culture, read-out: Prolif HPAC 3D ATP IC50
Procedure: as §1

KRAS WT [4] = molecular target: T1, KRAS WT; test: KRAS WT Biochemical Assay, BODIPY-GDP Exchange TR-FRET (Example 501; 3 nM KRAS WT, 3 nM SOS1, 60-minute incubation); details: read-out: KRas HTRF IC50
In short: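 SOS1-mediated exchange assay: 3 nM biotin-KRAS WT with terbium-streptavidin, started with 3 nM SOS1 and 300 nM BODIPY-GDP, HEPES pH 7.5 with MgCl2. TR-FRET (520/490 nm) read after 60 min; normalized to DMSO and full-inhibition control, IC50 from 4-parameter Hill fit.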

Sequence of KRAS G12D (P01116-2 other isoform, or with tags, fused parts or gaps G12D): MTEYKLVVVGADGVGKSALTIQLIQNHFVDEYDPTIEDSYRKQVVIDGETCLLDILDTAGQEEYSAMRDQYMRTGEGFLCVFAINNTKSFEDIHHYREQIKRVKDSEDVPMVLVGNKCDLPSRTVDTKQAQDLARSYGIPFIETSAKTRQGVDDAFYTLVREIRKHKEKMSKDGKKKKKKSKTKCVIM
T1 sequence (P01116-2 other isoform, or with tags, fused parts or gaps): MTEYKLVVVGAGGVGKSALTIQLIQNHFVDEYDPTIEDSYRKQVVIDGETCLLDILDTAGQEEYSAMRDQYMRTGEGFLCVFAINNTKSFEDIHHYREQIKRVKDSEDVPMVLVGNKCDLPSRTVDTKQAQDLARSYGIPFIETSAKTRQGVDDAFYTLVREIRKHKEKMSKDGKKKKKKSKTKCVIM

Row | Structure (SMILES) | IC50 [1] [µM] | IC50 (KRAS G12D) [nM] | IC50 (KRAS WT [2]) [nM] | IC50 ([1]; Homo sapiens, NCI-H1975, 168 h) [µM] | IC50 [3] [nM] | IC50 ([3]; Homo sapiens, HPAC, 168 h) [nM] | IC50 (KRAS WT [4]) [nM]
1 | C[C@@H]1Oc2nc(-c3c(Cl)c(N)c(F)c(F)c3C(F)(F)F)c(F)c3nc(OC[C@@]45CCCN4C[C@H](F)C5)nc(c23)N2C[C@H]3CC[C@H](N3)[C@@H]12 (atropisomer, axis not shown; (aS)) [Compound 106, 2-Chloro-5,6-difluoro-3-((5S,5aS,6S,9R)-1-fluoro-12-(((2R,7aS)-2-fluorotetrahydro-1H-pyrrolizin-7a(5H)-yl)methoxy)-5-methyl-5a,6,7,8,9,10-hexahydro-5H-4-oxa-3,10a,11,13,14-pentaaza-6,9-methanonaphtho[1,8-ab]heptalen-2-yl)-4-(trifluoromethyl)aniline] | 0.622 |  |  |  |  |  | 
2 | Cc1c(F)c(N)cc(-c2nc3c4c(nc(OC[C@H]5COC[C@H]6CCCN65)nc4c2F)N2C[C@H]4CC[C@H](N4)[C@H]2[C@H](C)O3)c1C(F)(F)F (single isomer, unassigned) [121 (isomer 1)] |  | 0.68 | 108 | 1.34 |  |  | 
3 | Cc1c(F)c(N)cc(-c2nc3c4c(nc(OC[C@H]5CC[C@@H]6CN(C)C(=O)CN56)nc4c2F)N2C[C@H]4CC[C@H](N4)[C@H]2[C@H](C)O3)c1C(F)(F)F (single isomer, unassigned) [131 (isomer 4)] |  | 1.14 | 195 |  | 90 |  | 
4 | Cc1c(F)c(N)cc(-c2nc3c4c(nc(OC[C@@]56CCCN5C[C@H](F)[C@@H]6F)nc4c2F)N2C[C@H]4CC[C@H](N4)[C@H]2[C@H](C)O3)c1C(F)(F)F (single isomer, unassigned) [143 (isomer 3)] |  | 0.43 | 47.3 | 1.09 |  |  | 
5 | Cc1c(F)c(N)cc(-c2nc3c4c(nc(OC[C@H]5C[C@@H]6COCCN65)nc4c2F)N2C[C@H]4CC[C@H](N4)[C@H]2[C@H](C)O3)c1C(F)(F)F (single isomer, unassigned) [159 (diast. 1)] |  | 0.28 | 64 | 4.31 |  |  | 
6 | C[C@@H]1Oc2nc(-c3cc(N)c(F)cc3[C@H](C)C(F)F)c(F)c3nc(OC[C@@]45CCCN4C[C@H](F)C5)nc(c23)N2C[C@H]3CC[C@H](N3)[C@@H]12 (single isomer, unassigned) [181 (isomer 1)] |  | 159 | 10900 |  |  | 2000 | 
7 | CC(c1cc(F)c(N)cc1-c1nc2c3c(nc(OC[C@@]45CCCN4C[C@H](F)C5)nc3c1F)N1C[C@H]3CC[C@H](N3)[C@H]1[C@H](C)O2)C(F)F (single isomer, unassigned) [181 (isomer 2)] |  | 50.4 |  | 7.26 |  | 903 | 3030
8 | Cc1c(F)c(N)cc(-c2nc3c4c(nc(OC[C@@]56CCCN5C[C@H](F)C6)nc4c2F)N2CCN[C@@H](C)[C@H]2[C@H](C)O3)c1C(F)(F)F (single isomer, unassigned) [234 (isomer 1)] |  | 1330 |  | 8.57 |  | 2000 | 23300
9 | Cc1c(F)c(N)cc(-c2nc3c4c(nc(OC[C@@]56CCCN5C[C@H](F)C6)nc4c2F)N2CCN[C@@H](C)[C@H]2[C@@H](C)O3)c1C(F)(F)F (single isomer, unassigned) [234 (isomer 2)] |  | 209 |  | 9.75 |  | 2000 | 513
10 | Cc1c(F)c(N)cc(-c2nc3c4c(nc(OC[C@@]56CCCN5C[C@H](F)C6)nc4c2F)N2CCN[C@H](C)[C@@H]2[C@H](C)O3)c1C(F)(F)F (single isomer, unassigned) [234 (isomer 3)] |  | 4810 |  | 16.6 |  | 2000 | 4570
11 | Cc1c(F)c(N)cc(-c2nc3c4c(nc(OC[C@@]56CCCN5C[C@H](F)C6)nc4c2F)N2CCN[C@H](C)[C@@H]2[C@@H](C)O3)c1C(F)(F)F (single isomer, unassigned) [234 (isomer 4)] |  | 589 |  | 8.5 |  | 2000 | 510
12 | Cc1c(F)c(N)cc(-c2nc3c4c(nc(OC[C@@]56CCCN5C[C@H](F)C6)nc4c2F)N2C[C@H]4CC[C@H](N4)[C@H]2[C@H](C(F)F)O3)c1C(F)(F)F (single isomer, unassigned) [238 (isomer 1)] |  | 7700 |  |  |  | 2000 | 3810
13 | Cc1c(F)c(N)cc(-c2nc3c4c(nc(OC[C@@]56CCCN5C[C@H](F)C6)nc4c2F)N2C[C@H]4CC[C@H](N4)[C@H]2[C@@H](C(F)F)O3)c1C(F)(F)F (single isomer, unassigned) [238 (isomer 2)] |  | 13000 |  | 20 |  | 2000 | 4800
14 | Cc1nc(N)cc(-c2nc3c4c(nc(OC[C@]56CCN5CC(F)(F)C6)nc4c2F)N2C[C@H]4CC[C@H](N4)[C@H]2[C@H](C(F)(F)F)O3)c1C(F)(F)F (single isomer, unassigned) [252 (isomer 2)] |  | 5.89 |  | 20 |  |  | 159
15 | Cc1c(F)c(N)cc(-c2nc3c4c(nc(OC[C@@]56CCN(C)C5COC6)nc4c2F)N2C[C@H]4CC[C@H](N4)[C@H]2[C@H](C)O3)c1C(F)(F)F (single isomer, unassigned) [258 (isomer 1)] |  | 0.09 |  |  |  | 5 | 14.9
16 | Cc1nc(N)cc(-c2nc3c4c(nc(OC[C@H]5N(C)C[C@]56CC6(F)F)nc4c2F)N2C[C@H]4CC[C@H](N4)[C@H]2[C@H](C(F)(F)F)O3)c1C(F)(F)F (single isomer, unassigned) [262 (isomer 1)] |  | 31.9 |  | 20 |  | 475 | 668
17 | Cc1nc(N)cc(-c2nc3c4c(nc(OC[C@H]5N(C)C[C@@]56CC6(F)F)nc4c2F)N2C[C@H]4CC[C@H](N4)[C@H]2[C@H](C(F)(F)F)O3)c1C(F)(F)F (single isomer, unassigned) [262 (isomer 2)] |  | 7.02 |  | 20 |  |  | 186
18 | Cc1nc(N)cc(-c2nc3c4c(nc(OCC5N(C)C[C@]56CC6(F)F)nc4c2F)N2C[C@H]4CC[C@H](N4)[C@H]2[C@H](C(F)(F)F)O3)c1C(F)(F)F (single isomer, unassigned) [262 (isomer 3)] |  | 41.1 |  | 20 |  | 971 | 1080
19 | Cc1nc(N)cc(-c2nc3c4c(nc(OCC5N(C)CC56CC6(F)F)nc4c2F)N2C[C@H]4CC[C@H](N4)[C@H]2[C@H](C(F)(F)F)O3)c1C(F)(F)F (single isomer, unassigned) [262 (isomer 4)] |  | 1.14 |  | 4.38 |  | 43.4 | 35.1
20 | Cc1c(F)c(N)cc(-c2nc3c4c(nc(OC[C@@]56CCN5CC(F)(F)C6)nc4c2F)N2C[C@H]4CC[C@H](N4)[C@H]2[C@H](C(F)(F)F)O3)c1C(F)(F)F (single isomer, unassigned) [263 (diast. 1)] |  | 0.26 |  | 0.789 |  | 6.14 | 5.49
21 | Cc1c(F)c(N)cc(-c2nc3c4c(nc(OCC56CCN5CC(F)(F)C6)nc4c2F)N2C[C@H]4CC[C@H](N4)[C@H]2[C@H](C(F)(F)F)O3)c1C(F)(F)F (single isomer, unassigned) [263 (diast. 2)] |  | 0.53 |  | 0.336 |  | 15.4 | 15.4
22 | Cc1c(F)c(N)cc(-c2nc3c4c(nc(OC[C@@H]5C[C@@H](F)[C@H]6CCCN56)nc4c2F)N2C[C@H]4CC[C@H](N4)[C@H]2[C@H](C)O3)c1C(F)(F)F (single isomer, unassigned) [Compound 160 (diast. 1)] |  | 0.14 | 31.3 | 1 |  |  | 
23 | Cc1cc(N)c(Cl)c(-c2nc3c4c(nc(OC[C@@]56CCCN5C[C@H](F)C6)nc4c2Cl)N2C[C@H]4CC[C@H](N4)[C@H]2[C@H](C)O3)c1C(F)(F)F (single isomer, unassigned) [Compound 240 (atrop. 1)] | 6.48 | 44.9 |  |  | 594 |  | 1080
